Measurements reported in PMC7883289, “Synthesis of Paeonol-Ozagrel Conjugate: Structure Characterization and In Vivo Anti-Ischemic Stroke potential” (Frontiers in Pharmacology, 2021).

Tested on: middle cerebral artery occlusion (MCAO) rats
Test: Evaluation of neurological deficit (Longa score) in MCAO rats
Format: in vivo
Settings: 24 h after reperfusion, single iv dose 2 h after reperfusion: paeonol and OS 3 mg/kg, POC 4.5 mg/kg, n = 6
Procedure: Male Sprague Dawley (SD) rats weighing among 220 g-230 g (Anhui Medicine University, Hefei, China; certificate number: SCXK20190,003) were housed under ad libitum access to food and water with a standardized light-dark cycle condition (25 ± 2°C, 12-hour light/dark cycle). All the experimental protocols were performed in accordance with the Institutional Animal Care and Use Committee of Anhui University of Chinese Medicine (Animal ethics number: AHUCM-rats-2019001). We used the minimal number of study animals (n = 6 rats in each group for different experiments). The rats were fastened upon the operating table in a supine position after being anesthetized with 2% pelltobarbitalum natricum (50 mg/kg). After disinfection of the skin within close proximity of the operative region, the right common carotid artery (CCA), external carotid artery (ECA) and internal carotid artery (ICA) were exposed with blunt dissection. The CCA was temporarily ligated and the ECA were permanently ligated ([Liu et al., 2016]). A nylon monofilament surgical thread was introduced into the ICA to block the MCA when the blunted distal end met resistance. After 2 h of occlusion, reperfusion was accomplished to restore blood supply to the MCA area by removing the filament ([Li et al., 2009]; [Zhai et al., 2017]). […] Rats were split randomly into five groups, including the sham, model, paeonol, OS and POC group. […] Neurological deficit was evaluated 24 h after reperfusion (blinded to experimenters). […] The rating score was assessed by the following standard: no neurological deficit, 0; failure to extend left forepaw fully, one; spontaneous circling to the left, two; falling to the left, three; inability to walk spontaneously and coma of consciousness, 4. […] Neurological scores for each group were calculated using six rats according to a sample size calculation (α err prob = 0.05, 1-β err prob = 0.95) and references ([Katayama et al., 2017]; [[…] al., 2019]; [Zheng et al., 2019]).

Structure (SMILES): COc1ccc(C(C)=O)c(OC(=O)C=Cc2ccc(Cn3ccnc3)cc2)c1 [POC, paeonol-ozagrel conjugate]
- neurological deficits score (Longa, 0-4): 1.50 ± 0.55
